Measurements from US20060194260A1, “Screening assays for cannabinoid-ligand-type modulators of gpr55” (priority 2003, published 2006).

Tests used:
GPR55A [1] = target: T1, GPR55A (Homo sapiens, UniProt Q9Y2T6); assay: GTPγS binding assay on membranes of GPR55A-transfected HEK293s cells; type: biochemical; conditions: for EC50: NA = not active; for activation of GPR55A (GTPγS): concentration response
T1 construct: expressed in transfected cells; host or cells: HEK293s (transient, pIRESneo2 vector), membranes
T1 sequence (Q9Y2T6 whole entry): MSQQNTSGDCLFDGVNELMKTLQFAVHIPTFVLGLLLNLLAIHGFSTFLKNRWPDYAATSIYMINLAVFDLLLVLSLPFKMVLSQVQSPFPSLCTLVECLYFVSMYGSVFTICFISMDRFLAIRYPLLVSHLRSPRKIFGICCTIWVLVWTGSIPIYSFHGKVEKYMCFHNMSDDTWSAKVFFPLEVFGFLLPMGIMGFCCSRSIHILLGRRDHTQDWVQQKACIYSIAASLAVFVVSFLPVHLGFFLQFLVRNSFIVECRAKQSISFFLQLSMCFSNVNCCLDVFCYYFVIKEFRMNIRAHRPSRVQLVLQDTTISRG
Description: Membranes with or without 20 μM ligand were assayed for their stimulatory or inhibitory activity on GTPγS binding. As a negative control, cell membranes were prepared from empty vector-transfected cells, and as a positive control, cell membranes were prepared from CB1 transfected cells.
Receptor activity was determined using a GTPγS binding assay as follows: 10 μg of membranes diluted in 200 μl of 100 mM NaCl, 5 mM MgCl2, 1 mM EDTA, 50 mM HEPES (pH 7.4), 1 mM DTT, 0.1% BSA and 100 μM GDP. To this was added the required concentration of test compound and […] ^35S-GTPγS in the presence or absence of an EC80 concentration of agonist (HU210). […] Samples were then transferred on to GF/B filters using a cell harvester and washed with wash buffer (50 mM Tris (pH 7.4), 5 mM MgCl2, 50 mM NaCl). Filters were then covered with scintilant and counted for the amount of ^35S-GTPγS retained by the filter. To determine the level of non-specific binding control reactions were performed in the presence of 10 μM GTPγS.
Functional activity of ligands either in the presence or absence of agonists was determined as follows: Non-specific binding was subtracted from all values determined. The effect of compounds at various concentrations was plotted according to the equation y=A+((B−A)/1+((C/x)?ˆD))) and EC50 or IC50 estimated. Results
To further define the agonist activities of cannabinoid ligands EC50 determinations were made. […] Refer to FIGS. 5A-5D for the results. […] Table 1. Activity of ligands at GPR55A (Antagonist data were generated in the presence of an EC80 concentration of HU210.)

GPR55 = target: T2, GPR55 (Homo sapiens, UniProt Q9Y2T6); assay: Radioligand binding, membranes of GPR55-transfected HEK293S cells; conditions: for specific binding of radioligand: 1.6 nM radioligand
T2 construct: FLAG; expressed in transfected cells; host or cells: HEK293S (transient), membranes
T2 sequence (Q9Y2T6 whole entry L132S/R133G/S134P/R136G/K137R/I138S/F139L/I141S/C142A): as the sequence (Q9Y2T6 whole entry) above, with L132S, R133G, S134P, R136G, K137R, I138S, F139L, I141S, C142A counted along it
Description: (§1) To test whether GPR55 and/or GPR55Δ encoded a receptor that had the potential to perform as a cannabinoid receptor we transiently transfected cDNAs encoding FLAG-tagged forms of the receptors into HEK293S cells using lipofectamine. The cells were harvested 48 hours later and membranes prepared.
(§2) Membrane preparations were prepared by re-suspending receptor expressing cells in ice cold TE buffer (10 mM Tris-HCL 0.1 mM EDTA pH7.5) and leaving on ice for 5 minutes before pelleting the insoluble material by centrifugation at 1000 g. This process was repeated twice before re-suspending the pellet in an appropriate volume of TE and storing at −80° C.
(§3) Test compounds were added followed by 1.6 nM radioligand (3H—SR-141716A, ^3H-CP55940 or ^3H-WIN-55, 212-2) to an assay mixture containing membranes (10 μg protein) in 5.0 mM Tris, 5.0 mM MgCl2×6H2O (pH 7.4) supplemented with 0.05% BSA. The reaction was allowed to proceed at 30° C. for 90 min and then terminated by rapid filtration using GF/B filters (pre-soaked in 0.05% PEI) and washed with 50 mM Tris (pH 7.4), MgCl2×6H2O. Filters were then covered with scintillant and counted for the amount of radioligand retained. Non-specific binding was determined in the presence of 200 nM SR-141716A, CP55940 or WIN-55, 212-2.

GPR55A [2] = target: T1, GPR55A; assay: Radioligand binding, membranes of GPR55A-transfected HEK293S cells; conditions: for specific binding of radioligand: 1.6 nM radioligand
Description: as §1, §2, §3

[3] = Radioligand binding, membranes of vector-transfected cells (negative control); conditions: vector-transfected cell membranes
Description: as §3

[4] = GTPγS binding, GPR55A membranes

Compound	EC50 (GPR55A [1]; [4])	activation of GPR55A (GTPγS) (GPR55A [1])	other results
CCCCC/C=C\C/C=C\C/C=C\C/C=C\CCCC(=O)OC(CO)CO [2-AG, 2-aracodonylglycerol]	3.5 ± 2.4 nM	concentration-dependent activation	
C=C(C)[C@@H]1CCC(C)=C[C@H]1c1c(O)cc(O)cc1CCCCC [Abnormal cannabidiol]	2780 ± 98 nM		
CCCCC/C=C\C/C=C\C/C=C\C/C=C\CCCC(=O)NCCO [Anandamide]	18.4 ± 4.1 nM	concentration-dependent activation	
CCCCCCC(C)(C)c1ccc([C@@H]2C[C@H](O)CC[C@H]2CCCO)c(O)c1 [CP55940]	7.1 ± 1.3 nM		concentration dependent activity after pertussis toxin or cholera toxin treatment (GPR55A [1]; GPR55a in HEK293s membranes, treated with either toxin vs untreated): remains unaltered
C=C(C)[C@@H]1CCC(C)=C[C@H]1c1c(O)cc(CCCCC)cc1O [Cannabidiol]			IC50 (GPR55A [1]; GTPγS binding, GPR55A membranes, antagonist data in the presence of an EC80 concentration of HU210, read-out: IC50 measurement): 354 ± 63 nM
CCCCCCC(C)(C)c1cc(O)c2c(c1)OC(C)(C)[C@@H]1CC=C(CO)C[C@@H]21 [Hu210]	33 ± 12 nM		
CCCn1c(C)c(C(=O)c2cccc3ccccc23)c2ccccc21 [JWH-015]	4.75 ± 0.25 nM		
CCCCC/C=C\C/C=C\C/C=C\C/C=C\CCCCOC(CO)CO [Noladin Ether]	11.5 ± 0.5 nM	concentration-dependent activation	
CCCCCCCC/C=C\CCCCCCCC(=O)NCCO [Oleylethanolamide]	424 ± 203 nM		
CCCCCCCCCCCCCCCC(=O)NCCO [Palmitoylethanolamide]	3.2 ± 1.3 nM	concentration-dependent activation	
Cc1c(C(=O)NN2CCCCC2)nn(-c2ccc(Cl)cc2Cl)c1-c1ccc(Cl)cc1 [SR141716]			displacement of [^3H]-SR141716 (competition-binding curve) (GPR55): nanomolar affinity; displacement of [^3H]-SR141716 (competition-binding curve) (GPR55A [2]): nanomolar affinity; specific binding, [^3H]-SR141716 competition [3]: no specific binding
CCCCC/C=C\C/C=C\C/C=C\C/C=C\CCCC(=O)OCCN [Virodhamine]	10.4 ± 1.4 nM		
CCCCCCC(C)(C)c1ccc([C@@H]2C[C@H](O)CC[C@H]2CCCO)c(O)c1 [[^3H]-CP55940]			specific binding of radioligand (GPR55): significant binding; specific binding of radioligand (GPR55A [2]): significant binding
Cc1c(C(=O)NN2CCCCC2)nn(-c2ccc(Cl)cc2Cl)c1-c1ccc(Cl)cc1 [[^3H]-SR141716]			specific binding of radioligand (GPR55): significant binding; specific binding of radioligand (GPR55A [2]): significant binding
Cc1c(C(=O)c2cccc3ccccc23)c2cccc3c2n1C(CN1CCOCC1)CO3 (stereo not drawn) [[^3H]-WIN55-212]			specific binding of radioligand (GPR55): little or no binding; specific binding of radioligand (GPR55A [2]): little or no binding
CCCCCc1cc(O)c2c(c1)OC(C)(C)[C@@H]1CCC(C)=C[C@@H]21 [Δ9-THC, Δ9-tetrahydrocannbinol]	8.9 ± 1.1 nM	concentration-dependent activation	
